# In ChEMBL document CHEMBL1201862, “PubChem BioAssay data set” (2004):
#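 Protocol summary: plate cells (96-well), add compound at 5 concentrations, incubate 48 h, interpolate endpoints linearly. GI50 marks 50% less growth.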 Activity calls are given as the source filed them. No stated cut-off is given here; in the data, active = GI50 up to about 1.1 µM and inactive = higher.
# Tests used:
# Experiment in all cases: NCI tumour cell line growth inhibition, 48 h
# [1] = tested on: LXFL 529
# [2] = tested on: SK-OV-3
# [3] = tested on: SNB-75
# [4] = tested on: HOP-18
# [5] = tested on: UO-31
# [6] = tested on: NCI-H226
# [7] = tested on: HCT-15
# [8] = tested on: MOLT-4
# [9] = tested on: ACHN
# [10] = tested on: SK-MEL-2
# [11] = tested on: OVCAR-4
# [12] = tested on: SF-268
# [13] = tested on: RXF 393
# [14] = tested on: SNB-78
# [15] = tested on: SF-539
# [16] = tested on: HT-29
# [17] = tested on: SF-295
# [18] = tested on: HCT-116
# [19] = tested on: TK-10
# [20] = tested on: DMS-114
# [21] = tested on: IGROV-1
# [22] = tested on: A549
# [23] = tested on: OVCAR-8
# [24] = tested on: SK-MEL-28
# [25] = tested on: LOX IMVI
# [26] = tested on: OVCAR-3
# [27] = tested on: NCI-H522
# [28] = tested on: SNB-19
# [29] = tested on: Malme-3M
# [30] = tested on: NCI-H460
# [31] = tested on: SN12C
# [32] = tested on: UACC-62
# [33] = tested on: DMS-273
# [34] = tested on: DLD-1
# [35] = tested on: SK-MEL-5
# [36] = tested on: M19-MEL
# [37] = tested on: UACC-257
# [38] = tested on: NCI-H23
# [39] = tested on: KM12
# [40] = tested on: DU-145
# [41] = tested on: SW-620
# [42] = tested on: HOP-62
# [43] = tested on: MDA-MB-435
# [44] = tested on: MDA-N
# [45] = tested on: PC-3
# [46] = tested on: U-251
# [47] = tested on: M14
# [48] = tested on: HCC 2998
# [49] = tested on: CAKI-1
# [50] = tested on: SR
# [51] = tested on: T47D
# [52] = tested on: RPMI-8226
# [53] = tested on: OVCAR-5
# [54] = tested on: Hs-578T
# [55] = tested on: 786-0
# [56] = tested on: CCRF-CEM
# [57] = tested on: BT-549
# [58] = tested on: NCI/ADR-RES
# [59] = tested on: HL-60
# [60] = tested on: HOP-92
# [61] = tested on: MCF7
# [62] = tested on: EKVX
# [63] = tested on: COLO 205
# [64] = tested on: K562
# [65] = tested on: MDA-MB-231
# [66] = tested on: A498
smiles,measurement,setting,value
CC(=O)Oc1cc(OC(C)=O)c2c(=O)c3ccccc3n(C)c2c1,GI50,[1],34.8 µM (inactive)
same,GI50,[2],25.2 µM (inactive)
same,GI50,[3],27.4 µM (inactive)
same,GI50,[4],14 µM (inactive)
same,GI50,[5],21.2 µM (inactive)
same,GI50,[6],17.1 µM (inactive)
same,GI50,[7],42.1 µM
same,GI50,[8],38 µM (inactive)
same,GI50,[9],22 µM (inactive)
same,GI50,[10],33 µM (inactive)
same,GI50,[11],48.9 µM (inactive)
same,GI50,[12],23.2 µM (inactive)
same,GI50,[13],34 µM (inactive)
same,GI50,[14],31.6 µM (inactive)
same,GI50,[15],18.7 µM (inactive)
same,GI50,[16],23.7 µM (inactive)
same,GI50,[17],13.1 µM (inactive)
same,GI50,[18],26.1 µM (inactive)
same,GI50,[19],29.8 µM (inactive)
same,GI50,[20],18.4 µM (inactive)
same,GI50,[21],14.7 µM (inactive)
same,GI50,[22],41.3 µM (inactive)
same,GI50,[23],16 µM (inactive)
same,GI50,[24],25.4 µM (inactive)
same,GI50,[25],11.5 µM (inactive)
same,GI50,[26],56.9 µM (inactive)
same,GI50,[27],10.4 µM (inactive)
same,GI50,[28],33.7 µM (inactive)
same,GI50,[29],25.7 µM (inactive)
same,GI50,[30],19.4 µM (inactive)
same,GI50,[31],25.5 µM (inactive)
same,GI50,[32],31.8 µM (inactive)
same,GI50,[33],16 µM (inactive)
same,GI50,[34],21.9 µM (inactive)
same,GI50,[35],15.1 µM (inactive)
same,GI50,[36],21.6 µM (inactive)
same,GI50,[37],30.1 µM (inactive)
same,GI50,[38],22.6 µM (inactive)
same,GI50,[39],33.2 µM (inactive)
N=C(N)c1ccc(/N=N\c2c(O)c(C(=O)Nc3ccccc3)cc3ccccc23)cc1,GI50,[40],> 100 µM (inactive)
same,GI50,[41],15.6 µM (inactive)
same,GI50,[2],> 32.6 µM (inactive)
same,GI50,[3],12.9 µM (inactive)
same,GI50,[5],75.5 µM (inactive)
same,GI50,[6],34.8 µM (inactive)
same,GI50,[7],18.1 µM
same,GI50,[8],2.58 µM (inactive)
same,GI50,[42],14.5 µM (inactive)
same,GI50,[9],23.3 µM (inactive)
same,GI50,[10],68.1 µM (inactive)
same,GI50,[11],17.8 µM (inactive)
same,GI50,[43],41.5 µM (inactive)
same,GI50,[44],35.7 µM (inactive)
same,GI50,[12],19.9 µM (inactive)
same,GI50,[45],17.9 µM (inactive)
same,GI50,[46],3.76 µM (inactive)
same,GI50,[13],> 43.4 µM (inactive)
same,GI50,[47],> 71.4 µM (inactive)
same,GI50,[48],> 37.6 µM (inactive)
same,GI50,[15],21 µM (inactive)
same,GI50,[16],18.4 µM (inactive)
same,GI50,[49],> 58.9 µM (inactive)
same,GI50,[50],7.89 µM (inactive)
same,GI50,[17],> 60.3 µM (inactive)
same,GI50,[51],17.4 µM (inactive)
same,GI50,[18],3.3 µM (inactive)
same,GI50,[19],> 44.5 µM (inactive)
same,GI50,[21],18.7 µM (inactive)
same,GI50,[52],4.6 µM (inactive)
same,GI50,[22],> 59.6 µM (inactive)
same,GI50,[23],16.1 µM (inactive)
same,GI50,[53],31.6 µM (inactive)
same,GI50,[24],> 100 µM (inactive)
same,GI50,[54],27.3 µM (inactive)
same,GI50,[55],10.8 µM (inactive)
same,GI50,[56],2.33 µM (inactive)
same,GI50,[25],2.02 µM (inactive)
same,GI50,[57],46 µM (inactive)
same,GI50,[26],32.7 µM (inactive)
same,GI50,[58],> 100 µM (inactive)
same,GI50,[59],7.98 µM (inactive)
same,GI50,[60],16.4 µM (inactive)
same,GI50,[61],9.86 µM (inactive)
same,GI50,[62],17 µM (inactive)
same,GI50,[27],10.1 µM (inactive)
same,GI50,[28],19.6 µM (inactive)
same,GI50,[29],32.1 µM (inactive)
same,GI50,[30],24.8 µM (inactive)
same,GI50,[31],23.8 µM (inactive)
same,GI50,[63],29 µM (inactive)
same,GI50,[32],> 87.5 µM (inactive)
same,GI50,[35],22.4 µM (inactive)
same,GI50,[64],7.08 µM (inactive)
same,GI50,[65],8.04 µM (inactive)
same,GI50,[66],> 100 µM (inactive)
same,GI50,[37],> 68.7 µM (inactive)
same,GI50,[38],21.9 µM (inactive)
same,GI50,[39],16.4 µM (inactive)
